Source: article PMC7039006 (2020)

Columns and labels:
[1] = test system: 5'-AGCA overhang on iM7 (DNA, i motif) AGCACCCCTTTCCC; test: fluorescence enhancement; settings: 2 mM MgCl2; TAE pH 5; 1 μM DNA, 3 μM THIA
[2] = test system: 5'-AGAA overhang on iM7 (DNA, i motif) AGAACCCCTTTCCC; test: fluorescence enhancement; settings: 2 mM MgCl2; TAE pH 5; 1 μM DNA, 3 μM DSMB
[3] = test system: TiM7 (5'-TGGA-C4T3C3) (DNA, i motif) TGGACCCCTTTCCC; test: CD melting at 290 nm; settings: 2 mM MgCl2; TAE pH 5; 50 μM DNA, 150 μM ThT
[4] = test system: TiM9 (TGGAC5T3C4) (DNA, i motif) TGGACCCCCTTTCCCC; test: CD melting at 290 nm; settings: 2 mM MgCl2; TAE pH 5; 50 μM DNA, 150 μM ThT
[5] = test system: iM7 (C4T3C3) (DNA, i motif) CCCCTTTCCC; test: CD melting at 290 nm; settings: 2 mM MgCl2; TAE pH 5; 50 μM DNA, 150 μM ThT; Tm stated unchanged
[6] = test system: iM9 (C5T3C4) (DNA, i motif) CCCCCTTTCCCC; test: CD melting at 290 nm; settings: 2 mM MgCl2; TAE pH 5; 50 μM DNA, 150 μM ThT; Tm stated unchanged
[7] = test system: TiM7 (5'-TGGA-C4T3C3) (DNA, i motif) TGGACCCCTTTCCC; test: fluorescence titration; settings: 2 mM MgCl2; TAE pH 5, 22°C; 3 μM ThT titrated with DNA
[8] = test system: TiM9 (TGGAC5T3C4) (DNA, i motif) TGGACCCCCTTTCCCC; test: fluorescence titration; settings: 2 mM MgCl2; TAE pH 5, 22°C; 3 μM ThT titrated with DNA
[9] = test system: 5'-GGA overhang on iM7 (DNA, i motif) GGACCCCTTTCCC; test: fluorescence enhancement; settings: 2 mM MgCl2; TAE pH 5, 22°C; 1 μM DNA, 3 μM ThT
[10] = test system: 5'-GGA overhang on iM9 (DNA, i motif) GGACCCCCTTTCCCC; test: fluorescence enhancement; settings: 2 mM MgCl2; TAE pH 5, 22°C; 1 μM DNA, 3 μM ThT
[11] = test system: 5'-AGGA overhang on iM7 (DNA, i motif) AGGACCCCTTTCCC; test: fluorescence enhancement; settings: 2 mM MgCl2; TAE pH 5, 22°C; 1 μM DNA, 3 μM ThT
[12] = test system: 5'-AGGA overhang on iM9 (DNA, i motif) AGGACCCCCTTTCCCC; test: fluorescence enhancement; settings: 2 mM MgCl2; TAE pH 5, 22°C; 1 μM DNA, 3 μM ThT
[13] = test system: 3'-GGGA on C3T3C4 (DNA, i motif) CCCTTTCCCCGGGA; test: fluorescence enhancement; settings: 2 mM MgCl2; TAE pH 5, 22°C; 1 μM DNA, 3 μM ThT
[14] = test system: 3'-GGGA on C4T3C5 (DNA, i motif) CCCCTTTCCCCCGGGA; test: fluorescence enhancement; settings: 2 mM MgCl2; TAE pH 5, 22°C; 1 μM DNA, 3 μM ThT
[15] = test system: FNA-TiM9 (Th46/Th58 tetrahedron heterodimer tethered with TiM9) (DNA, other) TTCAGACGGAATGTGCTTCCCAAGTGTCGTTTGTATTGGCTCGCAT/TCAACTGGGTGATAAAACGACACTTGGGAATCTACTATGGCTCTTC/TATCACCCAGTTGACAGTGTAGCATGTAATAGATGCGAGCCAATAC/ACATTCCGTCTGAAACATTACATGCTACACGAGAAGAGCCATAGTATTTTTTTTATAAATAATTGGACCCCCTTTCCCC/TTCAGACTTAGGAATGTTGCTTCCCACGTAGTGTCGTGTTGGTATTGGACCCTCGCAT/TCAACTGCCTGGTGATAAAACACGACACTACGTGGGAATCTTACTATGGCGGCTCTTC/TTATCACCAGGCAGTTGACAGGTGTAGCAAGCTGTAATAGATGCGAGGGTCCAATACC/AACATTCCTAAGTCTGAAACATTACAGCTTGCTACACCGAGAAGAGCCGCCATAGTAATTTTTTAATATTTATAATGGACCCCCTTTCCCC; test: fluorescence enhancement; settings: 2 mM MgCl2; TAE pH 5; 0.4 μM FNA, 0.4 μM ThT; over 20-fold fluorescence increase versus pH 8

With `CCN1/C(=C/c2sc3ccccc3[n+]2CC)Sc2ccccc21` the binding [1] was “yes”.
`CN(C)c1ccc(/C=C/c2sc3ccccc3[n+]2C)cc1` was tested, and the binding [2] was “yes”.
For `Cc1ccc2c(c1)sc(-c1ccc(N(C)C)cc1)[n+]2C`, the binding [3] was “yes”, the binding [4] was “yes” and the binding [5] was “weak”. The binding [6] was “weak”, the Kd [7] was ~ 3.9 μM and the Kd [8] was ~ 5.7 μM. For the same compound, the binding [9] was “weak”, the binding [10] was “weak” and the binding [11] was “yes”. The binding [12] was “yes”, the binding [13] was “yes” and the binding [14] was “yes”. For the same compound, the binding [15] was “yes”.
